From ChEMBL document CHEMBL1155858, “Derivatives of (3S)-N-(biphenyl-2-ylmethyl)pyrrolidin-3-amine as selective noradrenaline reuptake inhibitors: Reducing P-gp mediated efflux by modulation of H-bond acceptor capacity” (Bioorg Med Chem Lett, 2008) come the findings set out here.

Data set [1] has as its target T1, Sodium-dependent dopamine transporter (Homo sapiens, UniProt Q01959).
Description: Inhibition of [3H]dopamine uptake at human DAT expressed in HEK293 cells
Another data set concerns the target CYP2C9 (Homo sapiens, UniProt P11712). Put plainly: Inhibition of CYP2C9 at 3 uM. The format is ADME.
Data set [2] concerns the target T2, Sodium-dependent serotonin transporter (Homo sapiens, UniProt P31645).
Description: Inhibition of [3H]5HT uptake at human SERT expressed in HEK293 cells
For a further data set, the target named is Cytochrome P450 2D6 (Homo sapiens, UniProt P10635). The experiment in a line: Inhibition of CYP2D6. The format is ADME.
Cytochrome P450 2D6, sequence (P10635 whole entry): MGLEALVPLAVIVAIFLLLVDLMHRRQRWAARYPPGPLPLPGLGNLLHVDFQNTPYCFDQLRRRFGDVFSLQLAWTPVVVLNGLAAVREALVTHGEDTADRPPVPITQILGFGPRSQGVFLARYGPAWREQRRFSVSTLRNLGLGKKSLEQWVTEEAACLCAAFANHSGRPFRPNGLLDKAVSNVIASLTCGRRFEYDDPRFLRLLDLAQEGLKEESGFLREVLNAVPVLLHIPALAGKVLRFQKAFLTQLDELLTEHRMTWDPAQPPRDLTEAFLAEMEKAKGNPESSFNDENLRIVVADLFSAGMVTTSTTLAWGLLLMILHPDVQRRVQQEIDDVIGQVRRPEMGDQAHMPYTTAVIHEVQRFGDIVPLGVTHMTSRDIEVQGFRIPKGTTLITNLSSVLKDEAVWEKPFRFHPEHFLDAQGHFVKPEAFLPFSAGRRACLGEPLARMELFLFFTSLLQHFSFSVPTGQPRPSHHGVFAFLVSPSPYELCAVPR
For a further data set, the target named is CYP3A4 (Homo sapiens, UniProt P08684). Put plainly: Inhibition of CYP3A4 at 3 uM. The format is ADME.
The target in a further data set is CYP2D6 (Homo sapiens, UniProt P10635). The experiment in a line: Inhibition of CYP2D6 at 3 uM. The format is ADME.
CYP2D6, sequence (P10635 whole entry): as above
For the next data set, the system named is Liver microsomes. Put plainly: Metabolic stability in human liver microsomes. In kind it is ADME, Microsome. On the technique in general: Microsomes from liver hold many membrane-bound enzymes, among them those of drug oxidation.
Another data set has as its target CYP1A2 (Homo sapiens, UniProt P05177). The experiment in a line: Inhibition of CYP1A2 at 3 uM. In kind it is ADME.
The target of data set [3] is Sodium-dependent noradrenaline transporter (Homo sapiens, UniProt P23975). Put plainly: Inhibition of [3H]nisoxetine reuptake at human NET expressed in HEK293 cells by SPA. In kind it is cell-based.
The test system of a further data set is Rattus norvegicus. The experiment in a line: Increase in noradrenaline level in interstitial fluid of sc dosed conscious rat prefrontal cortex relative to baseline. In kind it is functional.
The next data set deals with Cytochrome P450 3A4 (Homo sapiens, UniProt P08684). The experiment in a line: Inhibition of CYP3A4. The format is ADME.
The target of data set [4] is T2, Sodium-dependent serotonin transporter. Put plainly: Inhibition of [3H]citalopram uptake at human 5HTT expressed in HEK293 cells by SPA. In kind it is cell-based.
For data set [5], the target named is 5-hydroxytryptamine receptor 2C (Homo sapiens) (UniProt P28335). The experiment in a line: Inhibition of 5HT2C receptor at 10 uM.
5-hydroxytryptamine receptor 2C (Homo sapiens), sequence (P28335 whole entry): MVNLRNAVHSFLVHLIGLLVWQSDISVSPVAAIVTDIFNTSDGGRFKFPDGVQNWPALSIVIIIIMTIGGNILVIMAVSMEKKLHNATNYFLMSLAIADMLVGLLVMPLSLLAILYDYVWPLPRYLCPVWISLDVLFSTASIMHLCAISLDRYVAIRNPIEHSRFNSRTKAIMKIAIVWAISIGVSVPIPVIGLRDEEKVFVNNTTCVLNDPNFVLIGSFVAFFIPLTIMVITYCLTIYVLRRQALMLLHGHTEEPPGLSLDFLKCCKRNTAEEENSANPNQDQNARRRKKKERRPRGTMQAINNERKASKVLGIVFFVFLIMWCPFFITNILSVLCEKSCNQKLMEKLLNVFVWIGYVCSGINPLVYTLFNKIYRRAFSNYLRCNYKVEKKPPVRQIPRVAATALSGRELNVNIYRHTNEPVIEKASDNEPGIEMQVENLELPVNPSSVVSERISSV
The nature of data set [6]: Apparent permeability from basolateral to apical side of the human Caco-2 membrane. The format is ADME, cell-based.
Data set [7] in a line: Inhibition of [3H]NA uptake at rat NET expressed in HEK293 cells. The format is cell-based.
Data set [8] has as its target T3, Muscarinic acetylcholine receptor M3 (Homo sapiens, UniProt P20309). Put plainly: Inhibition of muscarinic M3 receptor.
Target sequence in this assay (P20309 whole entry): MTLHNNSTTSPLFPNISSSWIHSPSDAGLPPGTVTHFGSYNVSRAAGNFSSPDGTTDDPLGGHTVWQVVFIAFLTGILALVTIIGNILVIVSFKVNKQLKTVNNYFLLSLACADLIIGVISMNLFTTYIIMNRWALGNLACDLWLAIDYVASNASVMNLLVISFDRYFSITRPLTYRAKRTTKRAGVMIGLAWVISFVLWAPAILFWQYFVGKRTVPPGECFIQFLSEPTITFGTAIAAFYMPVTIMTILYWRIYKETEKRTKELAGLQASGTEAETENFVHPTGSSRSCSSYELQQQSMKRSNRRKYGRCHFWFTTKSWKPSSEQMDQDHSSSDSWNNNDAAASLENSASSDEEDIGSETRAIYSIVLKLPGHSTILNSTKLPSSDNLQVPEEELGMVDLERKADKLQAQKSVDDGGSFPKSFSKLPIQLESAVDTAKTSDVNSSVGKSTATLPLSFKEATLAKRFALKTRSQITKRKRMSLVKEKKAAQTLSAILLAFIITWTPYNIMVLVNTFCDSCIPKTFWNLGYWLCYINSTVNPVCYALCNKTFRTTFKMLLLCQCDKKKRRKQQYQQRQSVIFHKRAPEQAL
For the next data set, the target named is T4, Cytochrome P450 1A2 (Homo sapiens, UniProt P05177).
T4 sequence (P05177 whole entry): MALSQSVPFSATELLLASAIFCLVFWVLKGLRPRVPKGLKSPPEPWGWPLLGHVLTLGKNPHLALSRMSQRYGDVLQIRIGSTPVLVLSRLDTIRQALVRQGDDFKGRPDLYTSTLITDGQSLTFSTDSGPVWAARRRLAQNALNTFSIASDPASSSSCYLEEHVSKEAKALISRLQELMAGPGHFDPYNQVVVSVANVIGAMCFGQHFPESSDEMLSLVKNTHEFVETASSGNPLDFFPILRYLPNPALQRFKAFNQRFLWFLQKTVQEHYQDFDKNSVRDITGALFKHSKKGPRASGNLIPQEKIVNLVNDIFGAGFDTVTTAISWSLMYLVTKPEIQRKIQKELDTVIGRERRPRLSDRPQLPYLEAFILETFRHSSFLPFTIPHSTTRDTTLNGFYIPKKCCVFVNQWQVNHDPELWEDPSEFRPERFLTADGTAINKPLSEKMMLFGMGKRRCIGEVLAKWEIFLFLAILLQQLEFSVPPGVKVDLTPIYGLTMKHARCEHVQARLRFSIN
Put plainly: Inhibition of CYP1A2. The format is ADME.

Data set [9] concerns the target T5, 5-hydroxytryptamine receptor 2B (Homo sapiens, UniProt P41595). Put plainly: Inhibition of 5HT2B receptor at 10 uM.
The target in data set [10] is T1, Sodium-dependent dopamine transporter. Put plainly: Inhibition of [3H]dopamine reuptake at human DAT expressed in HEK293 cells by SPA. The format is cell-based.
Data set [11] is described as follows: Dissociation constant, pKa of the compound. In kind it is physicochemical.
Data set [12] can be described thus: Distribution coefficient, log D at pH 7.4. In kind it is physicochemical. The conditions noted are these: octanol/water.
Data set [13] addresses 5-hydroxytryptamine receptor 2C (Homo sapiens, UniProt P28335). The experiment in a line: Activity at 5HT2C receptor.
A short description of data set [14]: Apparent permeability from apical to basolateral side of the MDCK cells expressing MDR1 gene. The format is ADME, cell-based, Canis lupus familiaris. Particulars: dog.
For data set [15], the target named is T6, 5-hydroxytryptamine receptor 2A (Homo sapiens, UniProt P28223). The experiment in a line: Inhibition of 5HT2A receptor at 10 uM.
T6 sequence (P28223 whole entry): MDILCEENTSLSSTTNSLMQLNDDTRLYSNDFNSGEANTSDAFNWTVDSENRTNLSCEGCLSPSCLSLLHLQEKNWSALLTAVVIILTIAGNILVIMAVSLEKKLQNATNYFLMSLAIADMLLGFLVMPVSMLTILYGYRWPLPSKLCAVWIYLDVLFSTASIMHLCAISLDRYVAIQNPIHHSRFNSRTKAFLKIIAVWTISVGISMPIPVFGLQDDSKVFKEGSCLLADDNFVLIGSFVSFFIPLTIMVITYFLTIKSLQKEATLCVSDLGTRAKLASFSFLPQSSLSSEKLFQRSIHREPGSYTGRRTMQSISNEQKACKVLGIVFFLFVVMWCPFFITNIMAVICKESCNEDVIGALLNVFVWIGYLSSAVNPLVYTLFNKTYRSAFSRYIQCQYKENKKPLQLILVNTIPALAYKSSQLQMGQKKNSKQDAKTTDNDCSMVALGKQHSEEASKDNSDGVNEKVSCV
Data set [16] can be described thus: Inhibition of sodium channel site 2.
Data set [17] in a line: Apparent permeability from basolateral to apical side of the MDCK cells expressing MDR1 gene. The format is ADME, cell-based, Canis lupus familiaris. The conditions noted are these: dog.
Data set [18] has as its target T3, Muscarinic acetylcholine receptor M3. Put plainly: Inhibition of muscarinic M3 receptor at 10 uM.
Target sequence in this assay (P20309 whole entry, looked up): as the sequence (P20309 whole entry) above
The next data set has as its system Hepatocyte. Put plainly: Metabolic stability in human hepatocytes assessed as intrinsic clearance. In kind it is ADME, cell-based, Liver.
A short description of data set [19]: Inhibition of L type calcium channel.
Data set [20] in a line: Metabolic stability in human liver microsomes assessed as intrinsic clearance. The format is ADME, Microsome.
Another data set deals with Cytochrome P450 2C9 (Homo sapiens, UniProt P11712). Put plainly: Inhibition of CYP2C9. In kind it is ADME.
Cytochrome P450 2C9, sequence (P11712 whole entry): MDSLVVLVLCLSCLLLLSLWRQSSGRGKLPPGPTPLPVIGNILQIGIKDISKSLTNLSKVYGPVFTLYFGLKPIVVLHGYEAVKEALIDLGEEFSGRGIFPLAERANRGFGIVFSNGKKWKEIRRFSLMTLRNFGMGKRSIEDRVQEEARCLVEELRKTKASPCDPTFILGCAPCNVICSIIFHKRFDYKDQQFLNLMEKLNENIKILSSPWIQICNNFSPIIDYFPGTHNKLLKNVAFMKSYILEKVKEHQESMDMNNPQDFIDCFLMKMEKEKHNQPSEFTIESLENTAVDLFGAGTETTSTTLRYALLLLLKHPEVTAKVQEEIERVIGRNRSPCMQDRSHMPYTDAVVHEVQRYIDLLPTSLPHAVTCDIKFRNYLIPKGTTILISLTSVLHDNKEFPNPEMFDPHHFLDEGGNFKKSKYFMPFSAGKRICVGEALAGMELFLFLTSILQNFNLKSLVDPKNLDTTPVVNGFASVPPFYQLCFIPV
Data set [21] has as its target T5, 5-hydroxytryptamine receptor 2B. The experiment in a line: Activity at 5HT2B receptor.
For data set [22], the target named is T6, 5-hydroxytryptamine receptor 2A. Put plainly: Activity at 5HT2A receptor.
The nature of data set [23]: Apparent permeability from apical to basolateral side of the human Caco-2 membrane. The format is ADME, cell-based. On the technique in general: Passage across Caco-2 layers is used to estimate intestinal permeability.

T2 sequence (P31645 whole entry): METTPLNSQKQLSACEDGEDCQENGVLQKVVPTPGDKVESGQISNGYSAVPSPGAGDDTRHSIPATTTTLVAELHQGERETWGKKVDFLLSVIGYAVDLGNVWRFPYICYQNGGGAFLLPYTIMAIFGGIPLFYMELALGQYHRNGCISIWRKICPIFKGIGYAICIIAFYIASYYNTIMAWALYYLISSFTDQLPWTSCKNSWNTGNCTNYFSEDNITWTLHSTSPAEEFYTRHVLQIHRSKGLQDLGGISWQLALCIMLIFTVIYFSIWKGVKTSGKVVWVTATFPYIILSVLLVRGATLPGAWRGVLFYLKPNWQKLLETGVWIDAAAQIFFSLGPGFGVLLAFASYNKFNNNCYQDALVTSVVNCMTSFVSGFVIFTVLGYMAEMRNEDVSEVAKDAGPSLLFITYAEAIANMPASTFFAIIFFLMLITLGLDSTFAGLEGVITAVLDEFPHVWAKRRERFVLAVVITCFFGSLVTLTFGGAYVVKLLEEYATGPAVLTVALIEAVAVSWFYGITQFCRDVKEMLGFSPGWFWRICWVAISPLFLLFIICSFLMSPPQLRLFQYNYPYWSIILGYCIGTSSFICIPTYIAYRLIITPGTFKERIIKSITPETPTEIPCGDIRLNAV
T5 sequence (P41595 whole entry): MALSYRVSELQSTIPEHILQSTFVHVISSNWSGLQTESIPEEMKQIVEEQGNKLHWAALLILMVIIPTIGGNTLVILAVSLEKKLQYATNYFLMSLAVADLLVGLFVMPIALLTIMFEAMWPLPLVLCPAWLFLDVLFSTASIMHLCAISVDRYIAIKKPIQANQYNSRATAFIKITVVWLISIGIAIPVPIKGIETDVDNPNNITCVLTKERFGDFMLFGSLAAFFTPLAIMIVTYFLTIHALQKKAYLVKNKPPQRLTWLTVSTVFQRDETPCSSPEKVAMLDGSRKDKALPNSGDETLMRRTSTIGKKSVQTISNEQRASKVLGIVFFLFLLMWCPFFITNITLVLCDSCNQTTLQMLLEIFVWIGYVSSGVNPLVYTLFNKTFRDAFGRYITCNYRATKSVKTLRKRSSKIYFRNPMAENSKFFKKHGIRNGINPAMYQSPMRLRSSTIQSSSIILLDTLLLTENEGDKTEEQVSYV
T1 sequence (Q01959 whole entry): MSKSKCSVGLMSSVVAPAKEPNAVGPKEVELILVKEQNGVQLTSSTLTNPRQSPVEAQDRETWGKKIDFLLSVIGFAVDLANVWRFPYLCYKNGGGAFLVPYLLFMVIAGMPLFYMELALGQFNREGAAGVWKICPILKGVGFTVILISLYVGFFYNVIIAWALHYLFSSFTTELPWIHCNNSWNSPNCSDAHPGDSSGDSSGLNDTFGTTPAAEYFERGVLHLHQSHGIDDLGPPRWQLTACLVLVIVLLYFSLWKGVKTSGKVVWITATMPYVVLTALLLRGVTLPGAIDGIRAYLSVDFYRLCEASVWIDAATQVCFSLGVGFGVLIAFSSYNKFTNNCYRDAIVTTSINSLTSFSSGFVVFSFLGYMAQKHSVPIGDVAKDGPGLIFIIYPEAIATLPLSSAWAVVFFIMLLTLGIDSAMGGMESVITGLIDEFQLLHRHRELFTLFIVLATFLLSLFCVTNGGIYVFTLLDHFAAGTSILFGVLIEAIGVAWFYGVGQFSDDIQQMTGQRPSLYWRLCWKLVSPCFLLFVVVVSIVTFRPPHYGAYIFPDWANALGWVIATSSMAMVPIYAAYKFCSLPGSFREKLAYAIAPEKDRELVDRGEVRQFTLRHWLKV
CYP2C9, sequence (P11712 whole entry): as the sequence (P11712 whole entry) above
5-hydroxytryptamine receptor 2C, sequence (P28335 whole entry): as the sequence (P28335 whole entry) above

For the compound `CC(C)C(=O)N(Cc1cccc(Cl)c1Cl)[C@H]1CCNC1`, the figures for the IC50 (in data set [1]; in data set [2]; against Cytochrome P450 2D6) were 1250 nM, 12 nM and greater than 3000 nM, respectively. Further, the inhibition at 3 µM against CYP2C9 was less than 40%; at CYP3A4 it was less than 40%; against CYP2D6 it was less than 10%; at CYP1A2 it was less than 40%. In addition, in the data set on Liver microsomes, the t1/2 is greater than 2 h.

As for `CCOC(=O)N(Cc1ccccc1-c1ccccc1)[C@H]1CCNC1`, the Ki in [3] came out at 8 nM; in data set [4], 1110 nM; in data set [7], 2.5 nM; in [8], 635 nM; in data set [10], 3030 nM; in data set [16], 1100 nM. Moreover, the Ki in [19] is 1500 nM. Moreover, the Activity in the data set with Rattus norvegicus was 400%. Also, the IC50 was greater than 3000 nM at Cytochrome P450 3A4, 1210 nM against Cytochrome P450 2D6, greater than 3000 nM against Cytochrome P450 1A2 and greater than 3000 nM at Cytochrome P450 2C9. Also, the inhibition in data set [5], in [9], in data set [15] and in data set [18] was greater than 80% each time. The Papp B→A in [6] was determined as 28 ×10⁻⁶ cm/s; in [17], 44 ×10⁻⁶ cm/s. The pKa in data set [11] came out at 9.6. The logD in [12] was 1.1. In addition, the EC50 in data set [13], in data set [21] and in data set [22] was greater than 10000 nM in each case. The results for the Papp A→B in [14] and in data set [23] were 22 ×10⁻⁶ cm/s and 27 ×10⁻⁶ cm/s, respectively. In addition, in the data set on Hepatocyte, the CL was less than 5 µL/min/mg. The microsomal CLint in data set [20] is less than 7 µL/min/mg.

In general, IC50 refers to the concentration that gives 50% inhibition. Broadly, the inhibition is the change of the read-out against control, counted positive when it falls. A higher inhibition goes with strong suppression. The term Ki denotes the dissociation constant of the complex between target and ligand, obtained from inhibition or displacement. For orientation: Papp B→A means how fast a substance crosses the layer from the basolateral side. As usually defined, the pKa is the pH at which an ionisable group is half protonated. As a reminder, the logD is lipophilicity at a set pH, counting ionised and neutral species. One may read the EC50 as the midpoint of the concentration-response curve. The Papp A→B is the apparent permeability from the apical to the basolateral side of a cell layer. Broadly, the microsomal CLint is the capacity of the preparation to metabolise the compound, expressed as a volume cleared per time.
